System: symmetric di-methyl arginine in Z-138 cells
Assay: Z-138 Methylation Assay (In Cell Western for symmetric di-methyl arginine and DNA content)
Type: cell-based
Details: Homo sapiens, 96 hours incubation, read-out: ICW EC50
Text: [formula] [formula] Where top and bottom are the normally allowed to float, but may be fixed at 100 or 0 respectively in a 3-parameter fit. The Hill Coefficient normally allowed to float but may also be fixed at 1 in a 3-parameter fit. Y is the % inhibition and X is the compound concentration. Z-138 Methylation Assay
Z-138 suspension cells were purchased from ATCC (American Type Culture Collection, Manassas, Va.). RPMI/Glutamax medium, penicillin-streptomycin, heat inactivated fetal bovine serum, and D-PBS were purchased from Life Technologies, Grand Island, N.Y., USA. Odyssey blocking buffer, 800CW goat anti-rabbit IgG (H+L) antibody, and Licor Odyssey infrared scanner were purchased from Licor Biosciences, Lincoln, Nebr., USA. Symmetric di-methyl arginine antibody was purchased from EMD Millipore, Billerica, Mass., USA. 16% Paraformaldehyde was purchased from Electron Microscopy Sciences, Hatfield, Pa., USA.
Z-138 suspension cells were maintained in growth medium (RPMI 1640 supplemented with 10% v/v heat inactivated fetal bovine serum and 100 units/mL penicillin-streptomycin) and cultured at 37° C. under 5% CO2.
Cell Treatment, in Cell Western (ICW) for Detection of Symmetric Di-Methyl Arginine and DNA Content.
Z-138 cells were seeded in assay medium at a concentration of 50,000 cells per mL to a 384-well cell culture plate with 50 μL per well. Compound (100 nL) from 384 well source plates was added directly to 384 well cell plate. Plates were incubated at 37° C., 5% CO2 for 96 hours. After four days of incubation, 40 μL of cells from incubated plates were added to poly-D-lysine coated 384 well culture plates (BD Biosciences 356697). Plates were incubated at room temperature for 30 minutes then incubated at 37° C., 5% CO2 for 5 hours. After the incubation, 40 μL per well of 8% paraformaldehyde in PBS (16% paraformaldahyde was diluted to 8% in PBS) was added to each plate and incubated for 30 minutes. Plates were transferred to a Biotek 405 plate washer and washed 5 times with 100 μL per well of wash buffer (1×PBS with 0.1% Triton X-100 (v/v)). Next 30 μL per well of Odyssey blocking buffer were added to each plate and incubated 1 hour at room temperature. Blocking buffer was removed and 20 μL per well of primary antibody was added (symmetric di-methyl arginine diluted 1:100 in Odyssey buffer with 0.1% Tween 20 (v/v)) and plates were incubated overnight (16 hours) at 4° C. Plates were washed 5 times with 100 μL per well of wash buffer. Next 20 μL per well of secondary antibody was added (1:200 800CW goat anti-rabbit IgG (H+L) antibody, 1:1000 DRAQ5 (Biostatus limited) in Odyssey buffer with 0.1% Tween 20 (v/v)) and incubated for 1 hour at room temperature. The plates were washed 5 times with 100 μL per well wash buffer then 1 time with 100 μL per well of water. Plates were allowed to dry at room temperature then imaged on the Licor Odyssey machine which measures integrated intensity at 700 nm and 800 nm wavelengths. Both 700 and 800 channels were scanned.
First, the ratio for each well was determined by:
Each plate included fourteen control wells of DMSO only treatment (minimum inhibition) as well as fourteen control wells for maximum inhibition treated with 3 μM of a reference compound (Background wells). The average of the ratio values for each control type was calculated and used to determine the percent inhibition for each test well in the plate. Reference compound was serially diluted three-fold in DMSO for a total of nine test concentrations, beginning at 3 μM. Percent inhibition was determined and IC50 curves were generated using triplicate wells per concentration of compound.

Row | Compound | EC50
1 | O=C1CN(c2cccc3cccnc23)CCN1CC(O)CN1CCc2ccccc2C1 (centres unmarked) [Compound 4, 1-(3-(3,4-dihydroisoquinolin-2(1H)-yl)-2-hydroxypropyl)-4-(quinolin-8-yl)piperazin-2-one] | 101 to 1000 nM
2 | O=C1CN(c2cccc(F)c2)CCN1CC(O)CN1CCc2ccccc2C1 (centres unmarked) [Compound 6] | 101 to 1000 nM
3 | O=C1CN(c2ccc(Cl)cc2)CCN1CC(O)CN1CCc2ccccc2C1 (centres unmarked) [Compound 7, 4-(4-chlorophenyl)-1-(3-(3,4-dihydroisoquinolin-2(1H)-yl)-2-hydroxypropyl)piperazin-2-one] | 101 to 1000 nM
4 | O=C1Cc2ccccc2N1CC(O)CN1CCc2ccccc2C1 (centres unmarked) [Compound 1, 1-(3-(3,4-dihydroisoquinolin-2(1H)-yl)-2-hydroxypropyl)indolin-2-one] | 101 to 1000 nM
5 | O=C1CN(c2cncc(N3CCOCC3)c2)CCN1CC(O)CN1CCc2ccccc2C1 (centres unmarked) [Compound 8, 1-(3-(3,4-dihydroisoquinolin-2(1H)-yl)-2-hydroxypropyl)-4-(5-morpholinopyridin-3-yl)piperazin-2-one] | 101 to 1000 nM

Second part, the compound after the results:

Row | EC50 | Compound
6 | 101 to 1000 nM | CN(C)c1ccccc1N1CCN(C[C@H](O)CN2CCc3ccccc3C2)C(=O)C1 [Compound 29]
7 | 101 to 1000 nM | O=c1cc(Nc2ccccc2)ccn1C[C@H](O)CN1CCc2ccccc2C1 [Compound 19, (R)-1-(3-(3,4-dihydroisoquinolin-2(1H)-yl)-2-hydroxypropyl)-4-(phenylamino)pyridin-2(1H)-one]
8 | 101 to 1000 nM | Cc1ccc(N2CCN(CC(O)CN3CCc4ccccc4C3)C(=O)C2)cc1 (centres unmarked) [Compound 15, 1-(3-(3,4-dihydroisoquinolin-2(1H)-yl)-2-hydroxypropyl)-4-(p-tolyl)piperazin-2-one]
9 | 101 to 1000 nM | O=C1CN(c2ccccc2Cl)CCN1CC(O)CN1CCc2ccccc2C1 (centres unmarked) [Compound 9]
10 | 101 to 1000 nM | O=C1COc2ccccc2N1CC(O)CN1CCc2ccccc2C1 (centres unmarked) [Compound 31, 4-(3-(3,4-dihydroisoquinolin-2(1H)-yl)-2-hydroxypropyl)-2H-benzo[b][1,4]oxazin-3(4H)-one]
11 | < 100 nM | O=C1CN(c2cccc(N3CCOCC3)c2)CCN1CC(O)CN1CCc2ccccc2C1 (centres unmarked) [Compound 12, 1-(3-(3,4-dihydroisoquinolin-2(1H)-yl)-2-hydroxypropyl)-4-(3-morpholinophenyl)piperazin-2-one]

— patent US10150758B2, “PRMT5 inhibitors and uses thereof” (Epizyme, Inc., priority 2012, dated 2018)
